# Results as given in patent publication US20040033555A1 (priority 2003, published 2004).
# Like-named read-outs stand apart in the source and are kept apart here.
# Assays:
# Phytophthora infestans = format: in vivo; conditions: preventative foliar spray, tomato; for % Disease Area, Photon Imaging: chlorophyll fluorescence; for % Disease Area, Visual Scoring: scored by eye
# [1] = system: Erysiphe graminis f sp. hordei; assay: Preventative control of powdery mildew on barley, % disease area by visual scoring and by photon imaging (fluorescein diacetate fluorescence); format: in vivo; conditions: preventative foliar spray; for % Disease Area, Photon Imaging: FDA fluorescence; for % Disease Area, Visual Scoring: scored by eye
# Method: Barley plants (Hordeum vulgari, cv. Boone) are cultivated either as single or multiple plants per plant growth unit, typically in a 2.54 cm by 2.54 cm pot of soil. Plants are grown in an environmentally regulated growth chamber at 20° C. and 70% humidity. The plants are approximately 7 days old at the time of application of the plant treatment agent. Single plant units are sprayed with fungicide standards or experimental plant treatment agents to the point of run-off.
# Twenty-four hours following application of the plant treatment agent the barley plants are subsequently inoculated with spores of a fungal plant pathogen and incubated under the appropriate conditions for a period sufficient to allow the development of visible disease symptoms.
# Inoculation with powdery mildew is with a spore suspension of Erysiphe graminis f. sp. hoerdei, (the causal agent of barley powdery mildew). Powdery mildew-inoculated plants are placed in a dry area for 4 hours following inoculation and are subsequently grown for an additional seven days at 20° C. and 65% humidity. Powdery mildew-infected plants are 15 days old at the time of rating of disease.
# For the determination of the % disease area for a sample, a binary image is generated which defined the area of pixels associated with a LGM for each object in the field of view. The percent disease area is calculated by dividing the pixel number for the LGM area by the pixel number for the sample area. For the detection of a LGM endogenous to the plant substrate, an additional step of subtracting the fluorescence area from the total leaf area and then dividing by the total leaf area is required for the percent disease area calculation.
# The effectiveness of a plant treatment agent on plants infected with a disease organism is determined by treating the test unit with a pro-LGM and detecting photon emission. Barley plants cultivated as described above are given 125 μL spray applications of a preventative treatment containing 40, 5, 1, 0.4 and 0.2 ppm flusilazole. The plant treatment agent is formulated by resuspending the appropriate amount of the dried compound in 6 μL of DMSO with shaking overnight, followed by the subsequent addition of 570 μL of a 50/50 Acetone/Water-Trem solution, yielding the desired final concentration. The Water-Trem contains 18 drops of the Trem® 014 surfactant (Henkel Corp, Amber, Pa.) per L of water. The formulated plant treatment agent is applied as a foliar spray application. In this example, a microsprayer apparatus (U.S. Patent Application No. 60/172,928) applying a fine aerosol mist from the tip of an ultrasonic nebulizer, with air assist, to a rotating electrostatically charged perpendicular plant target is employed.
# Twenty-four hours following application of the plant treatment agent the barley plants are subsequently inoculated with a suspension of powdery mildew (Erysiphe graminis f sp. hordei) spores, and incubated under the appropriate conditions for a period sufficient to allow the development of visible disease symptoms, as described above. Untreated plants are also infected at this time for the production of untreated, infected controls. Untreated, uninfected control plants are also generated in parallel.
# Plants to be rated for fungicide activity are first scored visually by eye for % disease coverage. The same samples are subsequently treated with the pro-LGM fluorescein diacetate. The FDA is formulated in a stock solution at 1 mg FDA/mL acetone. A final working solution is formulated which contains 5 μg/mL fluorescein diacetate and 0.005% Trem® 014. The FDA working solution is applied by spraying the sample using a Preval® sprayer (Precision Valve Corporation, Yonkers, N.Y.) with sufficient solution to wet all surfaces. Care must be taken not to allow access of FDA to leaves with cuts or abraded surfaces. […]
# Magnaportha grisea = conditions: 5 ppm, systemic application to media prior to seeding, Eragrostis curvula, M. grisea strain expressing a FP
structure (smiles),measurement,setting,value
COCC(=O)N(c1c(C)cccc1C)C(C)C(=O)OC (centres unmarked) [Ridomil],"% Disease Area, Photon Imaging",Phytophthora infestans; 1 ppm,60%
same,"% Disease Area, Visual Scoring",Phytophthora infestans; 1 ppm,53%
same,"% Disease Area, Photon Imaging",Phytophthora infestans; 5 ppm,10%
same,"% Disease Area, Visual Scoring",Phytophthora infestans; 5 ppm,24%
same,"% Disease Area, Photon Imaging",Phytophthora infestans; 20 ppm,2%
same,"% Disease Area, Visual Scoring",Phytophthora infestans; 20 ppm,3%
C[Si](Cn1cncn1)(c1ccc(F)cc1)c1ccc(F)cc1 [flusilazole],"% Disease Area, Photon Imaging",[1]; 0.2 ppm,64%
same,"% Disease Area, Visual Scoring",[1]; 0.2 ppm,52%
same,"% Disease Area, Photon Imaging",[1]; 0.4 ppm,27%
same,"% Disease Area, Visual Scoring",[1]; 0.4 ppm,19%
same,"% Disease Area, Photon Imaging",[1]; 1 ppm,24%
same,"% Disease Area, Visual Scoring",[1]; 1 ppm,7%
same,"% Disease Area, Photon Imaging",[1]; 5 ppm,13%
same,"% Disease Area, Visual Scoring",[1]; 5 ppm,1%
same,"% Disease Area, Photon Imaging",[1]; 40 ppm,0%
same,"% Disease Area, Visual Scoring",[1]; 40 ppm,0%
Cc1cccc2sc3nncn3c12 [tricyclazole],"FP fluorescence relative to untreated, inoculated control",Magnaportha grisea,reduced fluorescence
